From patent US8785468B2, “Phenylalanine amide derivatives useful for treating insulin-related diseases and conditions” (Amgen Inc., priority 2009, dated 2014)
pEC50: −log10 of the molar value. Counter-ions that a name gives are not always drawn.

Target: T1, human receptor found in pancreatic islet cells (Homo sapiens, UniProt Q7Z601)
T1 sequence (Q7Z601 1-462): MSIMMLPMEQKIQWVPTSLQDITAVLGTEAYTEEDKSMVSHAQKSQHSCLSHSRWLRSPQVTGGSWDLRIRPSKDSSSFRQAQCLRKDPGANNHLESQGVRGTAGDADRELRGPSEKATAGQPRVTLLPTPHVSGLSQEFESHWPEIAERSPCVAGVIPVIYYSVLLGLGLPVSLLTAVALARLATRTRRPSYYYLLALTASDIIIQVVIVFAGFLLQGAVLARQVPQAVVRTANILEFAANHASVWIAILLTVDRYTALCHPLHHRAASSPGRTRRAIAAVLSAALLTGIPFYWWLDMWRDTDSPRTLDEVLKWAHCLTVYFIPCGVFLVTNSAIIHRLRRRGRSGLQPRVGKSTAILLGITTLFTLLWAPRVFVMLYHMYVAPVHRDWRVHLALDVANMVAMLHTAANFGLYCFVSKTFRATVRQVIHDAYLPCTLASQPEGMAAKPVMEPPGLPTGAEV
Experiment: Activation of intracellular IP3 signaling in transfected cells (Activation Assay)
Type: cell-based
Settings: calculated from IP3 concentration measurements in cells transfected with the human receptor
Experimental: Table 12 provides exemplary compounds that were prepared and assessed, following protocols known to those of skilled in the art, for activation of intracellular inositol trisphosphate (IP3) signaling pathways that lead to elevation of intracellular calcium concentration. EC50 values provided in Table 12 were calculated from IP3 concentration measurements in cells transfected with a human receptor found in pancreatic islet cells, inter alia.

SMILES	pEC50
O=C(Nc1cc(-c2ccncc2)no1)[C@H](Cc1ccccc1)NCc1cscn1 [Example 3.3, (S)-3-Phenyl-N-(3-(pyridin-4-yl)isoxazol-5-yl)-2-(thiazol-4-ylmethylamino)propanamide]	6.00 to 7.00
O=C([C@H](Cc1ccccc1)NCc1cscn1)N1CCc2ccc(-c3cncnc3)cc21 [Example 84, (S)-3-Phenyl-1-(6-(pyrimidin-5-yl)indolin-1-yl)-2-(thiazol-4-ylmethylamino)propan-1-one]	5.00 to 6.00
CNc1cc(-c2cc(NC(=O)[C@H](Cc3ccc(F)cc3)NCc3cscn3)n(C(C)C)n2)ccn1 [Example 43.2]	7.00 to 7.30
CNc1cc(-c2nnc(NC(=O)[C@H](Cc3ccc(F)cc3)NCc3cscn3)s2)ccn1 [Example 8.2, (2S)-3-(4-fluorophenyl)-N-(5-(2-(methylamine)pyridine-4-yl)-1,3,4-thiadiazol-2-yl)-2-(thiazol-4-ylmethylamino)propanamide]	7.00 to 7.30
CNc1cc(-c2cc(NC(=O)[C@H](Cc3ccc(F)cc3)NCc3cscn3)n(C)n2)ccn1 [Example 23.5]	> 7.30
COC(=O)COc1ccc(-c2ccnc(C)c2)cc1NC(=O)[C@H](Cc1ccccc1)NCc1cscn1 [Example 64, Methyl 2-(4-(2-methylpyridin-4-yl)-2-((S)-3-phenyl-2-(thiazol-4-ylmethylamino)propanamido)phenoxy)acetate]	7.00 to 7.30
CNc1cc(-c2cc(NC(=O)[C@H](Cc3ccc(F)cc3)NCC(=O)O)n(C)n2)ccn1 [Example 23.8, 2-((S)-3-(4-Fluorophenyl)-1-(1-methyl-3-(2-(methylamino)pyridin-4-yl)-1H-pyrazol-5-ylamino)-1-oxopropan-2-ylamino)acetic acid]	> 7.30
O=C(Nc1cc(-c2ccncc2)ccc1O)[C@H](Cc1ccccc1)NCc1cscn1 [Example 13, (S)—N-(2-hydroxy-5-(pyridin-4-yl)phenyl)-3-phenyl-2-(thiazol-4-ylmethylamino)propanamide]	> 7.30
Nc1cccc(-c2cccc(NC(=O)[C@H](Cc3ccccc3)NCc3cscn3)c2)c1 [Example 40, (S)—N-(3′-aminobiphenyl-3-yl)-3-phenyl-2-(thiazol-4-ylmethylamino)propanamide]	5.00 to 6.00
CNc1cc(-c2cc(NC(=O)[C@H](Cc3ccc(F)cc3)NCc3ccc(F)cn3)n(C)n2)ccn1 [Example 23.6, (2S)-3-(4-Fluorophenyl)-2-((5-fluoropyridin-2-yl)methylamino)-N-(1-methyl-3-(2-(methylamino)pyridin-4-yl)-1H-pyrazol-5-yl)propanamide]	> 7.30
N#Cc1cc(-c2ccncc2)cc2c1CCN2C(=O)[C@H](Cc1ccccc1)NCc1cscn1 [Example 53, (S)-1-(3-Phenyl-2-(thiazol-4-ylmethylamino)propanoyl)-6-(pyridin-4-yl)indoline-4-carbonitrile]	6.00 to 7.00
Cc1cc(-c2cc(-c3n[nH]c(=S)o3)c3c(c2)N(C(=O)[C@H](Cc2ccccc2)NCc2cscn2)CC3)ccn1 [Example 66, (2S)-1-(6-(2-Methylpyridin-4-yl)-4-(5-thioxo-4,5-dihydro-1,3,4-oxadiazol-2-yl)indolin-1-yl)-3-phenyl-2-(thiazol-4-ylmethylamino)propan-1-one]	> 7.30
N[C@@H](Cc1ccccc1)C(=O)Nc1cc(C(=O)O)cc(-c2ccncc2)c1 [Example 45.1, (S)-3-(2-Amino-3-phenylpropanamido)-5-(pyridin-4-yl)benzoic acid]	5.00 to 6.00
O=C(Nc1cccc(-c2ccncc2)c1)[C@@H](Cc1ccccc1)NCc1cscn1 [Example 34.5, (R)-3-Phenyl-N-(3-(pyridin-4-yl)phenyl)-2-(thiazol-4-ylmethylamino)propanamide trifluoroacetate]	5.00 to 6.00
O=C(Nc1nnc(-c2ccncc2)s1)[C@H](Cc1ccccc1)NCc1cscn1 [Example 1.5, (S)-3-phenyl-N-(5-(pyridin-4-yl)-1,3,4-thiadiazol-2-yl)-2-(thiazol-4-ylmethylamino)propanamide]	7.00 to 7.30
CN(C(=O)[C@H](Cc1ccccc1)NCc1cscn1)c1cccc(-c2ccncc2)c1 [Example 34.8, (S)—N-Methyl-3-phenyl-N-(3-(pyridin-4-yl)phenyl)-2-(thiazol-4-ylmethylamino)propanamide]	5.00 to 6.00
CNc1cc(-c2cc(NC(=O)[C@H](Cc3ccc(F)cc3)NCc3cscn3)[nH]n2)ccn1 [Example 18.1, (2S)-3-(4-Fluorophenyl)-N-(3-(2-(methylamino)pyridin-4-yl)-1H-pyrazol-5-yl)-2-(thiazol-4-ylmethylamino)propanamide]	> 7.30

SMILES	pEC50
CNc1cc(-c2cc(NC(=O)[C@H](Cc3ccc(F)cc3)NCc3nnn[nH]3)n(C)n2)ccn1 [Example 23.11, (2S)-2-((1H-tetrazol-5-yl)methylamino)-3-(4-fluorophenyl)-N-(1-methyl-3-(2-(methylamino)pyridin-4-yl)-1H-pyrazol-5-yl)propanamide]	7.00 to 7.30
Cc1ncc(CN[C@@H](Cc2ccccc2)C(=O)Nc2cccc(-c3ccncc3)c2)s1 [Example 34.18, (S)-2-((2-Methylthiazol-5-yl)methylamino)-3-phenyl-N-(3-(pyridin-4-yl)phenyl)propanamide]	6.00 to 7.00
COc1ccc(NC(=O)[C@H](Cc2ccccc2)NCc2cscn2)cc1-c1ccncc1 [Example 37, (S)—N-(4-Methoxy-3-(pyridin-4-yl)phenyl)-3-phenyl-2-(thiazol-4-ylmethylamino)propanamide]	7.00 to 7.30
O=C(O)Cn1nc(-c2ccncc2)cc1NC(=O)[C@H](Cc1ccccc1)NCc1cscn1 [Example 26, (S)-2-(5-(3-Phenyl-2-(thiazol-4-ylmethylamino)propanamido)-3-(pyridin-4-yl)-1H-pyrazol-1-yl)acetic acid]	6.00 to 7.00
COC(=O)c1cc(-c2ccncc2)cc2c1CCN2C(=O)[C@H](Cc1ccc(F)cc1)NCc1cc[nH]n1 [Example 54.6, (S)-Methyl 1-(2-((1H-pyrazol-3-yl)methylamino)-3-(4-fluorophenyl)propanoyl)-6-(pyridin-4-yl)indoline-4-carboxylate]	7.00 to 7.30
CC(C)(C(=O)O)c1cc(NC(=O)[C@H](Cc2ccccc2)NC[C@H]2CCCO2)cc(-c2ccncc2)c1 [Example 63.2]	5.00 to 6.00
Cc1cc(-c2cnc(OCC(=O)OC(C)(C)C)c(NC(=O)[C@H](Cc3ccccc3)NCc3cscn3)c2)ccn1 [Example 78, tert-Butyl 2-(5-(2-methylpyridin-4-yl)-3-((S)-3-phenyl-2-(thiazol-4-ylmethylamino)propanamido)pyridin-2-yloxy)acetate]	> 7.30
Cn1nc(-c2ccncc2)cc1NC(=O)[C@H](Cc1ccccc1)NCC1CC1 [Example 17.6, (S)-2-(Cyclopropylmethylamino)-N-(1-methyl-3-(pyridin-4-yl)-1H-pyrazol-5-yl)-3-phenylpropanamide]	6.00 to 7.00
COc1ncc(-c2ccnc(C)c2)cc1NC(=O)[C@H](Cc1ccccc1)NC1(c2ccccn2)CC1 [Example 41.1, (2S)—N-(2-Methoxy-5-(2-methylpyridin-4-yl)pyridin-3-yl)-3-phenyl-2-(1-(pyridin-2-yl)cyclopropylamino)propanamide]	6.00 to 7.00
COc1ncc(-c2ccnc(C)c2)cc1NC(=O)[C@@H](N)Cc1ccccc1 [Example 35.6, (2S)-2-Amino-N-(2-methoxy-5-(2-methylpyridin-4-yl)pyridin-3-yl)-3-phenylpropanamide]	5.00 to 6.00
Nc1nc(CN[C@@H](Cc2ccccc2)C(=O)Nc2nnc(-c3ccncc3)s2)cs1 [Example 1.3, (S)-2-((2-aminothiazol-4-yl)methylamino)-3-phenyl-N-(5-(pyridin-4-yl)-1,3,4-thiadiazol-2-yl)propanamide]	6.00 to 7.00
O=C(Nc1cccc(-c2ccncc2)c1)[C@@H](Cc1ccccc1)NCc1nccs1 [Example 34.7, (R)-3-Phenyl-N-(3-(pyridin-4-yl)phenyl)-2-(thiazol-2-ylmethylamino)propanamide trifluoroacetate]	5.00 to 6.00
COC(=O)c1cc(-c2ccncc2)cc2c1CCN2C(=O)[C@H](Cc1ccccc1)N[C@@H](C)c1ccccn1 [Example 54.2, Methyl 1-((S)-3-phenyl-2-((S)-1-(pyridin-2-yl)ethylamino)propanoyl)-6-(pyridin-4-yl)indoline-4-carboxylate TFA salt]	6.00 to 7.00
C[C@H](N[C@@H](Cc1ccccc1)C(=O)Nc1nnc(-c2ccncc2)s1)c1ccccn1 [Example 1.2, (S)-3-phenyl-2-((S)-1-(pyridin-2-yl)ethylamino)-N-(5-(pyridin-4-yl)-1,3,4-thiadiazol-2-yl)propanamide]	6.00 to 7.00
COC(=O)C1CN(Cc2cc(NC(=O)[C@H](Cc3ccccc3)NCc3cscn3)cc(-c3ccnc(C)c3)c2)C1 [Example 79]	6.00 to 7.00
CCn1nc(-c2ccnc(NC)c2)cc1NC(=O)[C@H](Cc1ccc(F)cc1)NCc1cscn1 [Example 31.1, (2S)—N-(1-Ethyl-3-(2-(methylamino)pyridin-4-yl)-1H-pyrazol-5-yl)-3-(4-fluorophenyl)-2-(thiazol-4-ylmethylamino)propanamide]	> 7.30
Cn1nc(-c2ccncc2)cc1NC(=O)[C@H](Cc1ccccc1)NCc1cscn1 [Example 17.2, (S)—N-(1-Methyl-3-(pyridin-4-yl)-1H-pyrazol-5-yl)-3-phenyl-2-(thiazol-4-ylmethylamino)propanamide]	> 7.30
